Measurements as given in the kinase profiling compilation of Christmann-Franck et al. (2016).

Experiments:
Assay in all cases: KINOMEscan competition binding
Settings in all cases: compound 10.0 µM
RPS6KA3 KD2 (human) = RPS6KA3 KD2 (human) (UniProt P51812)
WNK1 (human) = WNK1 (human) (UniProt Q9H4A3)
WNK3 (human) = WNK3 (human) (UniProt Q9BYP7)
[1] = test system: ALK (human), Q9UM73 [C1156Y]
[2] = test system: ALK (human), Q9UM73 [L1196M]
NEK10 (human) = NEK10 (human) (UniProt Q6ZWH5)

WNK3 (human), sequence (Q9BYP7 whole entry, looked up): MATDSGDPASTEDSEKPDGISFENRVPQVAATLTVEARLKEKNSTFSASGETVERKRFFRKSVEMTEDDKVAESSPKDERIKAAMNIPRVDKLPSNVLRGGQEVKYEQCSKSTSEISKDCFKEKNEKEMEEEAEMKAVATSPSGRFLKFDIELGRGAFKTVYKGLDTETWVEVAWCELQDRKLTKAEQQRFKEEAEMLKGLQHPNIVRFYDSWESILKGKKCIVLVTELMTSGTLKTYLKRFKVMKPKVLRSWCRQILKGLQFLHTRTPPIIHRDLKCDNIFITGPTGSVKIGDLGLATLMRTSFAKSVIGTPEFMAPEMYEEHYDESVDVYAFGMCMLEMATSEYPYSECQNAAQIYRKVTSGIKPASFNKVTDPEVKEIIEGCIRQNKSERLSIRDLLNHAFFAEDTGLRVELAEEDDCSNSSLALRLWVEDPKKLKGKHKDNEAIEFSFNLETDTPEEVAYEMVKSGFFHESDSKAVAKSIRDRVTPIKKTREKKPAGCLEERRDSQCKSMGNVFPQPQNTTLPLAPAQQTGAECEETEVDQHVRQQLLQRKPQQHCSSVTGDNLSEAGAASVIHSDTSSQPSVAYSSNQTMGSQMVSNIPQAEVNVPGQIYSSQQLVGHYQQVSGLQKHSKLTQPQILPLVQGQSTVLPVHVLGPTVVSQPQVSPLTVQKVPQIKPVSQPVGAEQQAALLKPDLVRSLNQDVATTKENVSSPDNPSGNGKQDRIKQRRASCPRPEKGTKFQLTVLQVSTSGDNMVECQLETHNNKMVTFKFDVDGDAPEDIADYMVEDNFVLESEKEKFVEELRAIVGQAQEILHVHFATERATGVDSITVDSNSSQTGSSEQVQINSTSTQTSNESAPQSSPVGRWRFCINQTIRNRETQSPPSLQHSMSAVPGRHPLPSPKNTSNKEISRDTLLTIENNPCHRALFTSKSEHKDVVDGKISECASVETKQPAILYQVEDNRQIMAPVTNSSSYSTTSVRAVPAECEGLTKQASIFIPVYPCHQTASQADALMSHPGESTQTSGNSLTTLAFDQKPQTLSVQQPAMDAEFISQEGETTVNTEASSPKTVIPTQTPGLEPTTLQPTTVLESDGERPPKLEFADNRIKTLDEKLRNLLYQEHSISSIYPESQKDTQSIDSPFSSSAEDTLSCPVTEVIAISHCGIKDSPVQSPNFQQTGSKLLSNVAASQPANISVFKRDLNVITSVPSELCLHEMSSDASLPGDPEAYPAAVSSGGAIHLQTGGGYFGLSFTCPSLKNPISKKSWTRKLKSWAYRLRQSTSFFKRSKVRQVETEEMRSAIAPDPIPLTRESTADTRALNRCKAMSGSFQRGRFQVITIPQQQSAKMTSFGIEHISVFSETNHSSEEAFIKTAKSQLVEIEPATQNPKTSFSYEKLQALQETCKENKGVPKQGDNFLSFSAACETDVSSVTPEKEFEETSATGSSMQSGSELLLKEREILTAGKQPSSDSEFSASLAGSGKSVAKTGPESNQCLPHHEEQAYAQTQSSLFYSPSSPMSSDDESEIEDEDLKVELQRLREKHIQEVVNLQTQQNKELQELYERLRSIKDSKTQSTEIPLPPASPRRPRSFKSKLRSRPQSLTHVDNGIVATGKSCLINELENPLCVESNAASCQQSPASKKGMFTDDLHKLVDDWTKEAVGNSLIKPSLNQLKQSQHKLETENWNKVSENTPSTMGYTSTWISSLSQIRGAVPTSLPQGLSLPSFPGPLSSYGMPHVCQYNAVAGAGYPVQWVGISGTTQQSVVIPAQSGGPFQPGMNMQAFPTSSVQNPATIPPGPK
WNK1 (human), sequence (Q9H4A3 whole entry, looked up): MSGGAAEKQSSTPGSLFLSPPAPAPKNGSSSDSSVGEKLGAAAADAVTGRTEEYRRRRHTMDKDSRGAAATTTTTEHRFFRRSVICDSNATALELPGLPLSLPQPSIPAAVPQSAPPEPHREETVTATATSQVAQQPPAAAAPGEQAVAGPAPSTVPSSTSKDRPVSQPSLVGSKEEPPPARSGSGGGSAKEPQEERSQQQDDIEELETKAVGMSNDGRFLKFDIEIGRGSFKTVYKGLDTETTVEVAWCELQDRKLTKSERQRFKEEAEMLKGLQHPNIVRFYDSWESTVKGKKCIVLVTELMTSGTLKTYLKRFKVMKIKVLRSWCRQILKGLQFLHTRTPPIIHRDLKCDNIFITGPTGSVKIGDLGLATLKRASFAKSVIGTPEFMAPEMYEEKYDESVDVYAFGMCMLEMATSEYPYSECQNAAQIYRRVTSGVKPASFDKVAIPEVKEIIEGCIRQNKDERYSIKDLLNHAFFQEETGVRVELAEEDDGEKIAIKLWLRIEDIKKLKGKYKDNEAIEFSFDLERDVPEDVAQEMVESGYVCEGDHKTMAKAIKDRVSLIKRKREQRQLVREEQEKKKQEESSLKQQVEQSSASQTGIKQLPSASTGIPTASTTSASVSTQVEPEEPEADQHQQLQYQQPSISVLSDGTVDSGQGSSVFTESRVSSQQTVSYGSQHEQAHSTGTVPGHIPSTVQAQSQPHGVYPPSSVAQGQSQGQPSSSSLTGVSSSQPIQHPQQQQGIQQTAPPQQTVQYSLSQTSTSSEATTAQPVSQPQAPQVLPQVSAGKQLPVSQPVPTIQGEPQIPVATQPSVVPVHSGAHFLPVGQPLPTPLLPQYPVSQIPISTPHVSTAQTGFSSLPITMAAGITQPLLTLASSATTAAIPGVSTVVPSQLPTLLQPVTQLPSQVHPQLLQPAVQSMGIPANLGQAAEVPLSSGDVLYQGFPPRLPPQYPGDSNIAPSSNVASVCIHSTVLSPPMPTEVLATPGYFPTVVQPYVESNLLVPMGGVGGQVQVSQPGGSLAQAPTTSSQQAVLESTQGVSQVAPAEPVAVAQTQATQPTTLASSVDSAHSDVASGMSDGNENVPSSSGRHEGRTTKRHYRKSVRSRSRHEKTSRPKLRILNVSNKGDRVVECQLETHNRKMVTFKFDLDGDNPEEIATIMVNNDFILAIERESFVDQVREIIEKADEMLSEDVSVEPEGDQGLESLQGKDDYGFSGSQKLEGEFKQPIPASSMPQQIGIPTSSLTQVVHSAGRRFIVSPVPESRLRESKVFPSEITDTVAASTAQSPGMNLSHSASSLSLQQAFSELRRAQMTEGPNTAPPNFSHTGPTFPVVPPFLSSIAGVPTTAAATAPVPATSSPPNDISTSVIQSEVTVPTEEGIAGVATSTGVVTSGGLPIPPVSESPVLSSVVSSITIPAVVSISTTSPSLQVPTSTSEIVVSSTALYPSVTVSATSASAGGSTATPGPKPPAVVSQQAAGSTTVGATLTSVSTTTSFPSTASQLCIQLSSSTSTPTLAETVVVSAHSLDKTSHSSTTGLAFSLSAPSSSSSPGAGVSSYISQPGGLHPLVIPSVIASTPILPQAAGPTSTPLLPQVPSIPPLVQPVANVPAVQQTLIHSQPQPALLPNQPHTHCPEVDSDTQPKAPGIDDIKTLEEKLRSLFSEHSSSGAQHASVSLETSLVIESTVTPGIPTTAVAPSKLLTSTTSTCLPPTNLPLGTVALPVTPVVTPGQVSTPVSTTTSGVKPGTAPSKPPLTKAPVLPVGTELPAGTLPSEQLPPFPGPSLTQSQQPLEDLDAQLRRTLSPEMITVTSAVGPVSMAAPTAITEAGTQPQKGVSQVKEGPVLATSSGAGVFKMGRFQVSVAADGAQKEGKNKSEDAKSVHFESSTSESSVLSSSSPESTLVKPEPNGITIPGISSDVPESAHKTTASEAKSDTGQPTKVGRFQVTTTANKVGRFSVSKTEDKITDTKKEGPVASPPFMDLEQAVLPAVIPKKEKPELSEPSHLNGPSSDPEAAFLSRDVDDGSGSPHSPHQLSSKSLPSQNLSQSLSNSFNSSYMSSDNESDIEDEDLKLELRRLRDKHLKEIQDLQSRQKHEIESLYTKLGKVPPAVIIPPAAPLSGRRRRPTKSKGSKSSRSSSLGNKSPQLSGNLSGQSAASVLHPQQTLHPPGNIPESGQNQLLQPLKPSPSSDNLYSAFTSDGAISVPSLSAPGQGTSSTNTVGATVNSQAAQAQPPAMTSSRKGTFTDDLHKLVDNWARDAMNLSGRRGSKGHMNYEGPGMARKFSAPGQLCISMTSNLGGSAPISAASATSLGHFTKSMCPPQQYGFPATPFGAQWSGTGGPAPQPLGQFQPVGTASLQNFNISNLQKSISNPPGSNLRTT
RPS6KA3 KD2 (human), sequence (P51812 whole entry, looked up): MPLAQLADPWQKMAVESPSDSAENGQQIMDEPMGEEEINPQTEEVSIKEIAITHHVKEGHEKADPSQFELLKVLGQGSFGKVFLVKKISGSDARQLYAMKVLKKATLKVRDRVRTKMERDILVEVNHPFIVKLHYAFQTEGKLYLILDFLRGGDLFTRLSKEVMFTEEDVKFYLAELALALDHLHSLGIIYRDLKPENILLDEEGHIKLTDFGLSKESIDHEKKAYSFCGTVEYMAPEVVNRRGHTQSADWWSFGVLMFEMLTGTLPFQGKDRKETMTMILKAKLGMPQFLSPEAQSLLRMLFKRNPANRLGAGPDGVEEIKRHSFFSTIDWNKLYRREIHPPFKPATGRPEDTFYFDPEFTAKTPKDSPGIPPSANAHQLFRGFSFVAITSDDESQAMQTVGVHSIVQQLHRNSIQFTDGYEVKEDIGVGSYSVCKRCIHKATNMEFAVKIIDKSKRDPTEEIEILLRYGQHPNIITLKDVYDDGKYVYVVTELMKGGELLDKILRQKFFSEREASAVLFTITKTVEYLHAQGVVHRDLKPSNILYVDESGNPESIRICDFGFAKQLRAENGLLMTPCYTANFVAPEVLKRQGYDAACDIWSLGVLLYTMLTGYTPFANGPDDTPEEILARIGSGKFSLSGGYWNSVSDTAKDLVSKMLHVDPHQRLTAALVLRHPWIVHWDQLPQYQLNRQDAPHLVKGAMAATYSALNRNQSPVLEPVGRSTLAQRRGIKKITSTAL

Row | SMILES | kinase still bound, per cent of control (RPS6KA3 KD2 (human)) | kinase still bound, per cent of control (WNK1 (human)) | kinase still bound, per cent of control (WNK3 (human)) | kinase still bound, per cent of control [1] | kinase still bound, per cent of control [2] | kinase still bound, per cent of control (NEK10 (human))
1 | N#CCNC(=O)c1ccc(-c2ccnc(Nc3ccc(N4CCOCC4)cc3)n2)cc1 | 100% | 75% | 90% | – | – | –
2 | O=C1NC(=O)/C(=C/c2ccc3nccc(-c4ccncc4)c3c2)S1 | 70% | 57% | 86% | 42% | 45% | 0%
